We go through 18 compounds from ChEMBL document CHEMBL3637782, “GSK Tres Cantos Follow-up TB Screening Data” (2016).

Converted amounts (≈) assume the structure as drawn. Where only a bound is given, the exact number is not on record here.

Series [1] is described as follows: GSK_TB: AVG_CHROM_LOGP. It counts as physicochemical.
The test system of the next series is HepG2. The series is described as follows: GSK_TB: The cytotoxicity against HepG2 cells expressed as IC50. It counts as functional, cell-based. To be noted: Homo sapiens.
A short description of series [2]: GSK_TB: Kinetic solubility of the compound in phosphate buffered saline at pH 7.4 after 1 hr by CLND method. Type of series: physicochemical.
Series [3] has as its system Mycobacterium tuberculosis H37Rv. The series is described as follows: GSK_TB: Inhibition of the intracellular growth of Mycobacterium tuberculosis (pXC50). It counts as functional, ATCC25618.
Series [4] can be described thus: GSK_TB: Lipophilicity, log D of the compound at pH 7.4 by ChromlogD analysis. It counts as physicochemical. To be noted: buffer.
The subject of series [5] is Mycobacterium tuberculosis H37Rv. The series is described as follows: GSK_TB: Minimum inhibitory concentration against H37Rv stain of Mycobacterium tuberculosis using MABA method. It counts as functional. The settings on record: ATCC25618.
Series [6] shares this test system. The series is described as follows: GSK_TB: Growth inhibition of non-replicating Mycobacterium tuberculosis (pXC50). Type of series: functional, ATCC25618.

Consider `O=C(NCc1ccco1)N1CCN(Cc2ccc3c(c2)CCO3)CC1`, for which the Lipophilicity in series [1] is recorded as 3.5941; in series [4] it was 3.47. The IC50 in the series with HepG2 is more than 100 µM. The same compound came in with a solubility (kinetic) at 1 h in series [2] of 88 µg/mL (≈ 258 µM). This compound returned a pXC50 in series [3] of 5.8. The same compound registered an MIC in series [5] of 2 µM (≈ 0.683 µg/mL).
With `COc1ccc2nccc(NC(=O)C3CCN(CCc4ccc(Cl)cc4)CC3)c2n1`, the pXC50 in series [6] is on record as 5.1; in series [3] it was 6.6. Besides, the IC50 in the series on HepG2 was more than 100 µM. In series [2], this compound came in with a solubility (kinetic) at 1 h of 4 µg/mL (≈ 9.41 µM). For the same compound, in series [4], the Lipophilicity is recorded as 5.49. Further, in series [5], the MIC is 0.2 µM (≈ 0.085 µg/mL).
Regarding `O=C(NCc1ccoc1)N1CCN(Cc2ccc3c(c2)OCO3)CC1`, the Lipophilicity in series [1] is listed as 3.5288; in series [4] it was 3.48. The IC50 with HepG2 is more than 100 µM. The compound also registered a solubility (kinetic) at 1 h in series [2] of 86 µg/mL (≈ 250 µM). Also, the pXC50 in series [3] stood at 6.3. Besides, the MIC in series [5] came to 1.25 µM (≈ 0.429 µg/mL).
As to `Nc1ccccc1Nc1ccc(Cl)cc1`, the Lipophilicity turned out to be 5.9114 in series [1] and 5.76 in series [4]. The pXC50 amounted to 4.5 in series [6] and 7.8 in series [3]. Further, in the series with HepG2, half-maximal inhibition (IC50) required 79 µM. For the same compound, the kinetic solubility at 1 h in series [2] turned out to be 59 µg/mL (≈ 270 µM). Moreover, in series [5], the MIC was found to be 2 µM (≈ 0.437 µg/mL).
Consider `O=C(NCc1ccco1)N1CCN(Cc2cccs2)CC1`, for which the Lipophilicity in series [1] came to 3.5288; in series [4] it was 3.53. Further, the IC50 in the series with HepG2 is more than 100 µM. In addition, in series [2], the solubility (kinetic) at 1 h is not below 105 µg/mL. Moreover, the pXC50 in series [3] was 5.4. Further, in series [5], the MIC worked out at 2.5 µM (≈ 0.764 µg/mL).
Take `O=S(=O)(NCc1ccccc1)c1ccc(-c2cc3ccncc3cc2OC2CCNCC2)s1`: the Lipophilicity came out at 4.4101 in series [1] and 3.2 in series [4]. In the series on HepG2, this compound had a concentration for half-maximal inhibition (IC50) of 10 µM. The solubility (kinetic) at 1 h in series [2] stood at 33 µg/mL (≈ 68.8 µM). This compound also yielded a pXC50 in series [3] of 5.4. The same compound yielded an MIC in series [5] of 2.5 µM (≈ 1.2 µg/mL).
Consider `COc1ccc(-c2nnc3sc(Cc4csc(C)n4)nn23)cc1`, for which the values for the Lipophilicity in series [1] and in series [4] were 4.0511 and 3.97, respectively. The same compound displayed an IC50 in the series with HepG2 of more than 100 µM. Moreover, the solubility (kinetic) at 1 h in series [2] amounted to 95 µg/mL (≈ 277 µM). This compound also registered a pXC50 in series [3] of 5.7. Besides, it took 2.5 µM (≈ 0.859 µg/mL) to inhibit growth in series [5] (MIC).
As to `CNc1nc(SC)nnc1-c1cccc(Cl)c1Cl`, the figures for the Lipophilicity in series [1] and in series [4] were 4.9976 and 4.94, respectively. In addition, the IC50 in the series with HepG2 was more than 100 µM. The kinetic solubility at 1 h in series [2] is not below 85 µg/mL. In series [3], the pXC50 was 6.1. Further, in series [5], the MIC came out at 2.5 µM (≈ 0.753 µg/mL).
`CN(Cc1ccc(Cl)cc1)C(=O)CCc1nc2ccccc2oc1=O`: the Lipophilicity in series [1] was 6.0093; in series [4], 5.86. Also, the pXC50 in series [6] is 4.9; in series [3], less than 4.3. The IC50 with HepG2 is more than 100 µM. This compound also came in with a solubility (kinetic) at 1 h in series [2] of 127 µg/mL (≈ 356 µM). This compound yielded an MIC in series [5] of 3.9 µM (≈ 1.39 µg/mL).
As for `O=[N+]([O-])c1cnc(-c2nc3ccccc3[nH]2)s1`, the results for the Lipophilicity in series [1] and in series [4] were 4.459 and 3.17, respectively. In the series on HepG2, this compound had an IC50 of 10 µM. The compound also displayed a solubility (kinetic) at 1 h in series [2] of 16 µg/mL (≈ 65 µM). In series [3], the pXC50 is listed as less than 4.3. In series [5], this compound showed an MIC of 4.4 µM (≈ 1.08 µg/mL).
`c1ccc(-c2ncc(-c3ccc(OCCCn4ccnc4)cc3)s2)cc1`: the Lipophilicity in series [1] came out at 6.7437; in series [4], 6.42. This compound showed an IC50 with HepG2 of 25 µM. In series [2], this compound yielded a kinetic solubility at 1 h of 3 µg/mL (≈ 8.3 µM). In addition, the pXC50 in series [3] stood at 5.3. Also, the MIC in series [5] was found to be 5 µM (≈ 1.81 µg/mL).
Turning to `FC(F)(F)c1nnc2ccc(Sc3nnc(-c4ccco4)o3)nn12`, the Lipophilicity was found to be 3.8715 in series [1] and 3.78 in series [4]. In addition, the values for the pXC50 in series [6] and in series [3] were 4.5 and 5.4, respectively. The IC50 in the series on HepG2 stood at 32 µM. Moreover, in series [2], the solubility (kinetic) at 1 h was determined as 125 µg/mL (≈ 353 µM). For the same compound, the MIC in series [5] stood at 5.6 µM (≈ 1.98 µg/mL).
With `O=C(NCCO)c1c(O)c2ncc(Cc3ccc(F)cc3C(F)(F)F)cc2[nH]c1=O`, the Lipophilicity is listed as 3.9858 in series [1] and 3.74 in series [4]. The IC50 in the series on HepG2 is more than 100 µM. The kinetic solubility at 1 h in series [2] was 10 µg/mL (≈ 23.5 µM). This compound showed a pXC50 in series [3] of 5.7. The compound also returned an MIC in series [5] of 7.5 µM (≈ 3.19 µg/mL).
On to `O=C(Nc1nc(-c2ccccn2)cs1)N1CCC(Cc2ccc(F)cc2)CC1`, for which the figures for the Lipophilicity in series [1] and in series [4] were 6.3357 and 6.09, respectively. In the series on HepG2, the IC50 turned out to be 25 µM. For the same compound, the solubility (kinetic) at 1 h in series [2] was determined as 4 µg/mL (≈ 10.1 µM). Moreover, the pXC50 in series [3] worked out at 6.1. In addition, the minimal inhibitory concentration (MIC) in series [5] came to 10 µM (≈ 3.96 µg/mL).
On to `CC(C)Oc1ccc(-c2nnc(-c3ccc4c(c3)CCNCC4)s2)cc1Cl`, for which the Lipophilicity is given as 7.5923 in series [1] and 4.92 in series [4]. Further, the IC50 in the series on HepG2 worked out at 16 µM. Moreover, the solubility (kinetic) at 1 h in series [2] stood at 5 µg/mL (≈ 12.5 µM). In series [3], this compound registered a pXC50 of 5.5. The compound also came in with an MIC in series [5] of 10 µM (≈ 4 µg/mL).
Consider `N#Cc1cc(C(F)(F)F)c2nc(C(=O)NCc3cccs3)c(Cl)n2c1`, for which the Lipophilicity in series [1] is given as 5.4382; in series [4], 5.21. Further, the pXC50 in series [6] came to 5.2; in series [3], 6.1. In the series with HepG2, the IC50 was more than 100 µM. The kinetic solubility at 1 h in series [2] came out at 72 µg/mL (≈ 187 µM). Also, the MIC in series [5] is 10 µM (≈ 3.85 µg/mL).
In the case of `COc1ccc(CN2CCN(C(=O)/C=C/c3csc(C)n3)CC2)cc1`, the Lipophilicity is 4.1653 in series [1] and 4.13 in series [4]. This compound returned an IC50 with HepG2 of 80 µM. In series [2], this compound came in with a kinetic solubility at 1 h not below 116 µg/mL. This compound had a pXC50 in series [3] of 5.7. This compound registered an MIC in series [5] of 10 µM (≈ 3.57 µg/mL).
For `Nc1ccc(S(=O)(=O)Nc2ccnn2-c2ccccc2)cc1` [SULFAPHENAZOLE], the results for the Lipophilicity in series [1] and in series [4] were 2.8435 and 1.08, respectively. The IC50 in the series with HepG2 is more than 100 µM. This compound registered a kinetic solubility at 1 h in series [2] not below 167 µg/mL. The pXC50 in series [3] is less than 4.3. In series [5], this compound showed an MIC of 10 µM (≈ 3.14 µg/mL).
